Test results as given in PubChem BioAssay (NCI).
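These data come from cells grown in 96-well plates and exposed to compound for 48 hours at five concentrations. TGI denotes the concentration required for complete inhibition of growth.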

How the values were obtained:
Test in all cases: NCI tumour cell line growth inhibition, 48 h
MDA-MB-231 breast = system: MDA-MB-231 breast
EKVX NSCLC = system: EKVX NSCLC
K-562 leukemia = system: K-562 leukemia
HCC-2998 colon = system: HCC-2998 colon
NCI/ADR-RES ovarian = system: NCI/ADR-RES ovarian
IGROV1 ovarian = system: IGROV1 ovarian
DU-145 prostate = system: DU-145 prostate
RXF 393 renal = system: RXF 393 renal
HCT-15 colon = system: HCT-15 colon
CAKI-1 renal = system: CAKI-1 renal
MDA-MB-435 = system: MDA-MB-435
M14 melanoma = system: M14 melanoma
SNB-75 CNS = system: SNB-75 CNS
HOP-62 NSCLC = system: HOP-62 NSCLC
786-0 renal = system: 786-0 renal
UACC-257 melanoma = system: UACC-257 melanoma
U251 CNS = system: U251 CNS
LOX IMVI melanoma = system: LOX IMVI melanoma
SNB-19 CNS = system: SNB-19 CNS
OVCAR-3 ovarian = system: OVCAR-3 ovarian
HCT-116 colon = system: HCT-116 colon
SF-539 CNS = system: SF-539 CNS
SN12C renal = system: SN12C renal
RPMI-8226 leukemia = system: RPMI-8226 leukemia
SF-295 CNS = system: SF-295 CNS
NCI-H23 lung = system: NCI-H23 lung
MDA-N = system: MDA-N
COLO 205 colon = system: COLO 205 colon
A498 renal = system: A498 renal
NCI-H522 lung = system: NCI-H522 lung
MALME-3M melanoma = system: MALME-3M melanoma
SK-OV-3 ovarian = system: SK-OV-3 ovarian
KM12 colon = system: KM12 colon
SR leukemia = system: SR leukemia
A549 NSCLC = system: A549 NSCLC
SW-620 colon = system: SW-620 colon
ACHN renal = system: ACHN renal
UO-31 renal = system: UO-31 renal
HL-60(TB) leukemia = system: HL-60(TB) leukemia
SK-MEL-28 melanoma = system: SK-MEL-28 melanoma
OVCAR-8 ovarian = system: OVCAR-8 ovarian
OVCAR-5 ovarian = system: OVCAR-5 ovarian
SF-268 CNS = system: SF-268 CNS
TK-10 renal = system: TK-10 renal
PC-3 prostate = system: PC-3 prostate
HS 578T breast = system: HS 578T breast
T-47D breast = system: T-47D breast
BT-549 breast = system: BT-549 breast
NCI-H460 lung = system: NCI-H460 lung
NCI-H226 lung = system: NCI-H226 lung
MCF7 breast = system: MCF7 breast
HOP-92 NSCLC = system: HOP-92 NSCLC
SK-MEL-5 melanoma = system: SK-MEL-5 melanoma
HT29 colon = system: HT29 colon
MOLT-4 leukemia = system: MOLT-4 leukemia
OVCAR-4 ovarian = system: OVCAR-4 ovarian
SK-MEL-2 melanoma = system: SK-MEL-2 melanoma
UACC-62 melanoma = system: UACC-62 melanoma
CCRF-CEM leukemia = system: CCRF-CEM leukemia

Clc1ccc(COc2ccccc2/C=N/c2c(-c3ccco3)nc3ccccn23)c(Cl)c1
TGI (MDA-MB-231 breast): 52.6 µM
TGI (EKVX NSCLC): > 100 µM
TGI (K-562 leukemia): > 100 µM
TGI (HCC-2998 colon): > 100 µM
TGI (NCI/ADR-RES ovarian): 96.1 µM
TGI (IGROV1 ovarian): > 100 µM
TGI (DU-145 prostate): 76 µM
TGI (RXF 393 renal): 56.3 µM
TGI (HCT-15 colon): 88.3 µM
TGI (CAKI-1 renal): > 100 µM
TGI (MDA-MB-435): 49.1 µM
TGI (M14 melanoma): 74.1 µM
TGI (SNB-75 CNS): 69.7 µM
TGI (HOP-62 NSCLC): > 100 µM
TGI (786-0 renal): 75.9 µM
TGI (UACC-257 melanoma): > 100 µM
TGI (U251 CNS): > 100 µM
TGI (LOX IMVI melanoma): 35.5 µM
TGI (SNB-19 CNS): > 100 µM
TGI (OVCAR-3 ovarian): > 100 µM
TGI (HCT-116 colon): 36.7 µM
TGI (SF-539 CNS): 47.3 µM
TGI (SN12C renal): 66.6 µM
TGI (RPMI-8226 leukemia): 86.2 µM
TGI (SF-295 CNS): > 100 µM
TGI (NCI-H23 lung): > 100 µM
TGI (MDA-N): 70.2 µM
TGI (COLO 205 colon): > 100 µM
TGI (A498 renal): > 100 µM
TGI (NCI-H522 lung): > 100 µM
TGI (MALME-3M melanoma): > 100 µM
TGI (SK-OV-3 ovarian): > 100 µM
TGI (KM12 colon): > 100 µM
TGI (SR leukemia): 49.2 µM
TGI (A549 NSCLC): > 100 µM
TGI (SW-620 colon): > 100 µM
TGI (ACHN renal): > 100 µM
TGI (UO-31 renal): > 100 µM
TGI (HL-60(TB) leukemia): 71.2 µM
TGI (SK-MEL-28 melanoma): > 100 µM
TGI (OVCAR-8 ovarian): > 100 µM
TGI (OVCAR-5 ovarian): > 100 µM
TGI (SF-268 CNS): > 100 µM
TGI (TK-10 renal): 88.6 µM
TGI (PC-3 prostate): > 100 µM
TGI (HS 578T breast): > 100 µM
TGI (T-47D breast): > 100 µM
TGI (BT-549 breast): 89.6 µM
TGI (NCI-H460 lung): > 100 µM
TGI (NCI-H226 lung): > 100 µM
TGI (MCF7 breast): 62 µM
TGI (HOP-92 NSCLC): 57.4 µM
TGI (SK-MEL-5 melanoma): 32 µM
TGI (HT29 colon): > 100 µM
TGI (MOLT-4 leukemia): > 100 µM
TGI (OVCAR-4 ovarian): > 100 µM
TGI (SK-MEL-2 melanoma): 42.8 µM
TGI (UACC-62 melanoma): > 100 µM
TGI (CCRF-CEM leukemia): 63.7 µM

COC(=O)c1oc([N+](=O)[O-])c(Cl)c1Cl
TGI (MDA-MB-231 breast): 14 µM
TGI (EKVX NSCLC): 36.8 µM
TGI (K-562 leukemia): 6.48 µM
TGI (HCC-2998 colon): 35 µM
TGI (NCI/ADR-RES ovarian): 36.5 µM
TGI (IGROV1 ovarian): 14.8 µM
TGI (DU-145 prostate): 32.5 µM
TGI (RXF 393 renal): 28 µM
TGI (HCT-15 colon): 18.2 µM
TGI (CAKI-1 renal): 7.4 µM
TGI (MDA-MB-435): 14.6 µM
TGI (M14 melanoma): 13.8 µM
TGI (SNB-75 CNS): 20.8 µM
TGI (HOP-62 NSCLC): 17 µM
TGI (786-0 renal): 16.4 µM
TGI (UACC-257 melanoma): 15.2 µM
TGI (U251 CNS): 15.5 µM
TGI (LOX IMVI melanoma): 13.7 µM
TGI (SNB-19 CNS): 35.4 µM
TGI (OVCAR-3 ovarian): 11.4 µM
TGI (HCT-116 colon): 12.9 µM
TGI (SF-539 CNS): 14.4 µM
TGI (SN12C renal): 14.2 µM
TGI (RPMI-8226 leukemia): 15.8 µM
TGI (SF-295 CNS): 24.7 µM
TGI (NCI-H23 lung): 17.4 µM
TGI (MDA-N): 14.9 µM
TGI (COLO 205 colon): 8.61 µM
TGI (A498 renal): 23 µM
TGI (NCI-H522 lung): 3.33 µM
TGI (MALME-3M melanoma): 14.3 µM
TGI (SK-OV-3 ovarian): 33.2 µM
TGI (KM12 colon): 14.5 µM
TGI (SR leukemia): 4.89 µM
TGI (A549 NSCLC): 37.7 µM
TGI (SW-620 colon): 10 µM
TGI (ACHN renal): 15.6 µM
TGI (UO-31 renal): 14.5 µM
TGI (HL-60(TB) leukemia): 3.24 µM
TGI (SK-MEL-28 melanoma): 15.8 µM
TGI (OVCAR-8 ovarian): 30.4 µM
TGI (OVCAR-5 ovarian): 14.8 µM
TGI (SF-268 CNS): 17.5 µM
TGI (TK-10 renal): 14 µM
TGI (PC-3 prostate): 15.1 µM
TGI (HS 578T breast): 29.3 µM
TGI (T-47D breast): 13.1 µM
TGI (BT-549 breast): 14.8 µM
TGI (NCI-H460 lung): 34.6 µM
TGI (NCI-H226 lung): 42.9 µM
TGI (MCF7 breast): 6.27 µM
TGI (HOP-92 NSCLC): 39.3 µM
TGI (SK-MEL-5 melanoma): 17.7 µM
TGI (HT29 colon): 41.4 µM
TGI (MOLT-4 leukemia): 4.93 µM
TGI (OVCAR-4 ovarian): 17.4 µM
TGI (SK-MEL-2 melanoma): 31.6 µM
TGI (UACC-62 melanoma): 15.7 µM
TGI (CCRF-CEM leukemia): 7.35 µM
